From patent US9205071B2, “Arsenic compounds, their preparation methods and uses thereof” (Changzhou Hi-Tech District Multiple Dimension Industry …, priority 2009, dated 2015)

Key:
HL-60 cells [1] = assay: Cell proliferation test (MTT method); format: cell-based; conditions: HL-60 cell proliferation, 48 h
Method: Tested drugs with different concentrations were added, and repeated four wells for each drug concentration group, then continued to culture in a CO2 incubator. Cell proliferation was detected by MTT method 48 h after culture. 15 ul MTT (5 mg/ml) was added in each well, and continued to culture for 4 h. Suspension in the well was collected, centrifuged, and supernatant was discarded. 100 ul of DMSO was added into each well to completely dissolve formazan particles. The solution was sucked into the original well, the absorbance at 492 nm was detected by ELISA, and the inhibiting rate was calculated according to the formula CI=(1-A test group /A control group)×100%.

HL-60 cells [2] = assay: Cell viability test (Trypan blue, live cell rate)

Compound: O=[As]([O-])([O-])[O-].[Na+].[Na+].[Na+] [Na3AsO4]
- Inhibiting rate (HL-60 cells [1]; 7.5 uM): 2.5%
- Inhibiting rate (HL-60 cells [1]; 15 uM): 7.9%
- Inhibiting rate (HL-60 cells [1]; 30 uM): 13.9%
- Inhibiting rate (HL-60 cells [1]; 60 uM): 24.5%
- live cell rate at 4 d after administration (HL-60 cells [2]; 7.5 uM): 93.11%
- live cell rate at 4 d after administration (HL-60 cells [2]; 15 uM): 89.06%
- live cell rate at 4 d after administration (HL-60 cells [2]; 30 uM): 75.36%
- live cell rate at 4 d after administration (HL-60 cells [2]; 60 uM): 60.06%
- live cell rate at 4 d after administration (HL-60 cells [2]; 120 uM): 43.11%
